From PMC9313812, “The Pseudo‐Natural Product Rhonin Targets RHOGDI” (Angewandte Chemie (International Ed. in English), 2022)

Tested on: HEK293T cells
Assay: Cell fractionation: distribution of RHO GTPases
Format: cell-based
Conditions: 10 μM
Procedure: centrifugation for 20 min in 20000 x g, supernatants were collected and loaded on a Ni-NTA column (Qiagen, Hilden, Germany). The protein was eluted by passing a buffer containing 300 mM imidazole into the Ni-NTA column. The eluted solution was further purified on an analytical Superdex 75 column (10/300 GL, GE-Healthcare, Uppsala, Sweden) using 20 mM HEPES-NaOH pH 7.4, 150 mM NaCl, 3 mM DTT, 5 mM MgCl2 and 0.5% (w/v) Na-cholate as buffer system. Non-prenylated RAC1 and human RHOGDI1 were prepared from E. coli as a GST recombinant protein as described previously.6
For expression of GST-PDEδ, E. coli RosettaTM2 cells transformed with PDE6D expression plasmid (pGex4T5) were inoculated in TB medium containing 100 μg/ml ampicillin and 30 μg/ml chloramphenicol to a total volume of 10 L. The protein expression in E. coli was induced with 0.2 mM IPTG at OD600 = 1.33. Cells were cultivated overnight at 18 ° C with shaking.
Cells then were pelleted by centrifugation at 4000xg for 20 min at 4 ° C and stored at -20 ° C. […]
NIH/3T3 cells were seeded in a 96 plate (10,000 cell per well/ plate name: Essen Bioscience NO 4379). […] Cell migration was monitored using IncuCyte ZOOM for a period of 48 h. The images were analyzed by the Incucyte Scratch Wound Analysis Software. […]

`COC(=O)C1(C(CC(=O)c2cccnc2)c2ccccc2)N=C(c2ccc(Br)cc2)C2C(=O)N(C)C(=O)C21` (stereo not shown) [7l] was tested, and the “Subcellular localization of membrane-bound RHO GTPases (in words)” value was “from the plasma membrane to the endoplasmic reticulum (ER) membrane”.
